Patent US4886806A, “Flavone-3-carboxylic acids compounds and pharmaceutical compositions containing them” (Kali-Chemie Pharma GmbH, priority 1987, dated 1989)

Test system: oxygen radical-forming activity of peritoneal exudate cells (PEC) of mice
Test: Spontaneous CL and induced CL chemiluminescence test: inhibition of oxygen radical liberation from peritoneal exudate cells (30 min preincubation)
Assay type: cell-based
Parameters: concentration or dose not given beside the values
Conditions: for Inhibition in vitro of the oxygen radical liberation, Chemiluminescence Test % inhibition, Ind. CL: induced CL, after ZyC3b activation; for Inhibition in vitro of the oxygen radical liberation, Chemiluminescence Test % inhibition, Spnt. CL: spontaneous CL, before ZyC3b
Experimental: 1. To determine the inhibiting effect on the oxygen radical-forming activity of inflamed cells, the in vitro inhibition of the release of oxygen radicals from activated peritoneal exudate cells (=PEC) of mice was determined in the chemiluminescence (CL) test according to the method of Mueller-Peddinghaus (Int. J. Immunopharmac. 6, 455-466 (1984)). […] The intensity of the chemiluminescence is a measurement of the oxygen radical content in the suspension and thus the degree of activity of the inflamed cells. In this, three functionally different parameters are detected, the spontaneous CL, the induced CL and the peak CL. The spontaneous CL and the induced CL on the one hand and the peak CL on the other hand differ from each other because in the first two parameters the test substances are in contact with the cells for a 30 minute preincubation period before the inflammation irritant is added, whereas with the peak CL the cells are first stimulated, and the test substance is added at the peak of their activity. The measurement of the spontaneous CL thus detects the influence of the test substance on the relative rest activity of inflamed cells, the induced CL represents the effect of the test substances on the activatability of the cells and the inhibition of the peak CL indicates the effect of the test substances on the maximum activity of the inflamed cells. 1.1 Production of PEC suspension used in the test. In order to induce the PEC formation, female mice of 20-25 g body weight were each injected i.p. with 2 ml of a 3% solution of thioglycollate in sterile isotonic sodium chloride solution. Twenty four hours after the thioglycollate injection the cells, which predominantly consisted of polymorphonuclear leucocytes, were recovered by washing out of the abdominal cavity and washed twice. As cell culture medium there was added a commercially available solution under the designation RPMI 1640 (pH 7.2) (produced by Flow Laboratories, […], Germany), which contains 10% fetal calf serum (FCS, produced by Seromed GmbH, Munich, Germany) 18 μmol/l sodium bicarbonate and 2 μmol/l L-glutamine. The cell pellets of four animals each time were resuspended in cell culture medium, collected together and the suspension was made up to 2×10^6 cells per ml with cell culture medium. The cell suspensions were kept under ice cooling until their use the same day. 1.2 Production of the complement opsonized zymosan (=ZyC3 b) suspension used for activation. 200 mg zymosan (glycoprotein mixture isolated from the cell walls of brewer's yeast, Sacchomyces […], produced by Sigma Chemical Co., Munich, Germany) were suspended in 10 ml phosphate buffer solution according to Dulbecco (produced by Flow Laboratories, […], Germany), well stirred and heated for thirty minutes in a water bath to 100° C. After cooling, it was centrifuged for five minutes at 4° C. and at 600 ×g and the supernatant was discarded. The sediment was resuspended in 50 ml human serum and incubated for thirty minutes at 37° C. in a shaking water bath. Then it was centrifuged for five minutes at 600 ×g and 420 C., the supernatant decanted and the sediment washed with phosphate buffer solution. The working suspension of 8×10^-3 g ZyC3 b/ml was produced from the sediment by dilution with phosphate buffer solution (Mueller-Peddinghaus et al., Zbl. Vet. Med. B. 30, 559-575). 1.3 Chemiluminescence (CL) measurement (Peak-CL). […] At the end of this preincubation phase, 100 μl lucigenin were added, and in the course of the subsequent sixteen minute incubation phase the spontaneous CL parameter was determined with two measuring points. Then 100 μl ZyC3 b+100 μl phosphate buffer were added, and during the course of the subsequent twenty-four minute cell activation the induced CL parameter was measured with three measuring points. All measurements were determined twice. The parameters spontaneous CL and induced CL were determined on the same day with two separate cell pools.

| SMILES | Inhibition in vitro of the oxygen radical liberation, Chemiluminescence Test % inhibition, Ind. CL | Inhibition in vitro of the oxygen radical liberation, Chemiluminescence Test % inhibition, Spnt. CL |
| --- | --- | --- |
| COc1cc(-c2oc3ccccc3c(=O)c2C(=O)N2CCN(c3ccccn3)CC2)cc(OC)c1OC [Example 7b, 3',4',5'-trimethoxy-3-{[4-(2-pyridyl)-piperazin-1-yl]-carbonyl}flavone] | 50% | 61% |
| O.O=C(O)C(O)C(O)C(=O)O.O=C(c1c(-c2ccccc2)oc2ccccc2c1=O)N1CCN(Cc2ccccc2)CC1 [Example 2b, 3-[(4-benzyl-piperazin-1-yl)-carbonyl]flavone tartrate monohydrate] | 54% | 67% |
| O=C(NCCCCN1CCN(c2ccccn2)CC1)c1c(-c2ccccc2)oc2ccccc2c1=O [Example 4e, 3-{4-[4-(2-pyridyl)-piperazin-1-yl]-butylaminocarbonyl}flavone] | 82% | 95% |
| O.O.O=C(O)C(O)C(O)C(=O)O.O=C(c1c(-c2cc(O)c(O)c(O)c2)oc2ccccc2c1=O)N1CCN(Cc2ccccc2)CC1 [Example 14e, 3',4',5'-trihydroxy-3-[(4-benzylpiperazin-1-yl)carbonyl] -flavone tartrate dihydrate] | 99% | 98% |
| COc1cc(-c2oc3ccccc3c(=O)c2C(=O)NCCCCN2CCN(c3ncccn3)CC2)cc(OC)c1OC [Example 54] | 83% | 91% |
| COc1cc(OC)c2c(=O)c(C(=O)N3CCN(c4ccccn4)CC3)c(-c3ccccc3)oc2c1 [Example 34] | 55% | 54% |
| Cl.O=C(c1c(-c2ccccc2)oc2ccccc2c1=O)N1CCN(c2ccccn2)CC1 [Example 1c, 3-{[4-(2-Pyridyl)-piperazin-1-yl]-carbonyl}flavone hydrochloride] | 39% | 49% |
| CN1CCN(CCCCNC(=O)c2c(-c3ccccc3)oc3ccccc3c2=O)CC1 [Example 24] | 14% | 55% |
| COc1ccc(-c2oc3ccccc3c(=O)c2C(=O)N2CCN(c3ccccn3)CC2)cc1OC [Example 32b] | 65% | 71% |
| O=C(NCCc1ccccn1)c1c(-c2cc(O)c(O)c(O)c2)oc2ccccc2c1=O [Example 53] | 83% | 73% |
| CC(=O)Oc1cc(-c2oc3ccccc3c(=O)c2C(=O)N2CCN(c3ccccn3)CC2)cc(OC(C)=O)c1OC(C)=O [Example 39b] | 99% | 99% |
| COc1cc(-c2oc3ccccc3c(=O)c2C(=O)N2CCN(c3ccccn3)CC2)cc(OC)c1OC [Example 7a, 3',4',5'-trimethoxy-3-{[4-(2-pyridyl)-piperazin-1-yl]-carbonyl}flavone] | 65% | 75% |
| O=C(c1c(-c2cccc(O)c2)oc2ccccc2c1=O)N1CCN(Cc2ccccc2)CC1 [Example 30] | 85% | 85% |
| CCN(CC)CCCOC(=O)c1c(-c2ccccc2)oc2ccccc2c1=O.Cl [Example 3b, 3-[3-(diethylamino)propoxycarbonyl]flavone hydrochloride] | 83% | 94% |
